Our source for the EC50 values is ChEMBL document CHEMBL5370565, “Inhibition of Cysteine Proteases via Thiol-Michael Addition Explains the Anti-SARS-CoV-2 and Bioactive Properties of Arteannuin B” (J Nat Prod, 2023).

The assay has as its system SARS-CoV-2. The experiment in a line: Antiviral activity against SARS-CoV-2 nCoV-2019BetaCoV/Wuhan/WIV04/2019 infected in African green monkey Vero E6 cells assessed as reduction in viral yield preincubated with cells for 1 hrs followed by viral infection for 1 hrs with subsequent replacement of fresh media containing compound and measured 24 hrs post infection by qRT-PCR analysis. Format: functional, organism-based. The note with it: Severe acute respiratory syndrome coronavirus 2, nCoV-2019BetaCoV/Wuhan/WIV04/2019, Vero C1008. For orientation: Quantitative PCR measures a nucleic acid by following its amplification.

Each structure is given as a SMILES string.

As for `C=C1C(=O)O[C@@]23C1CC[C@@H](C)[C@@H]2CC[C@@]1(C)O[C@@H]31` (stereo partly specified), the EC50 – broadly, the concentration giving half of the maximal effect – came out at 10.3 µM.
